Assay results taken from paper PMC10976477 (RSC Advances, 2024).
Where two headings read alike, the source gives them in different places.

How the values were obtained:
[1] = In vivo antioxidant potential in mice; conditions: 5 mg kg^−1, SOD, CAT, GSH
[2] = target: eeAChE (Electrophorus electricus, UniProt O42275); assay: Cholinesterase inhibition, Ellman's assay; assay type: biochemical, electric eel; conditions: for SI = IC50 of BChE/IC50 of AChE: selectivity index
[3] = target: T1, human MAO-A (Homo sapiens, UniProt P21397); assay: MAO-A inhibition assay; assay type: biochemical
T1 sequence (P21397 1-527): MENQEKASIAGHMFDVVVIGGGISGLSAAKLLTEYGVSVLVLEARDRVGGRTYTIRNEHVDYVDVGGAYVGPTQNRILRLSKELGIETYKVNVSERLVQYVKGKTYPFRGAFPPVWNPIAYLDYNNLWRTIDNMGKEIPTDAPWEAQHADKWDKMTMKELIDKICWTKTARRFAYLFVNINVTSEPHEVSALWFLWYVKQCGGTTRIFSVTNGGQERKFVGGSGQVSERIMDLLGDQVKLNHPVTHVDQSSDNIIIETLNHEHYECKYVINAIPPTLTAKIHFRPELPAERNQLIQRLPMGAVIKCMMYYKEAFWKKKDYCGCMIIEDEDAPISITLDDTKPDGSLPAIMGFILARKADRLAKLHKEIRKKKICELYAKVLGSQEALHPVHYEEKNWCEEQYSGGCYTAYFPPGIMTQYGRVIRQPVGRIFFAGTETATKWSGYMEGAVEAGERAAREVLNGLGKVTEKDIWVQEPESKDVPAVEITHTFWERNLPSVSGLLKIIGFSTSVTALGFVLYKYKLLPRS

[4] = system: HEK-293 cells; assay: Cell viability assay on normal human embryonic HEK-293 cells; assay type: cell-based; conditions: 1, 10, 20, 40 and 100 μM, MTT
[5] = Ferric ion reducing antioxidant power; conditions: μM equivalent to the standard antioxidant ascorbic acid
[6] = target: Aβ1–42 peptide (Homo sapiens, UniProt P05067); assay: ThT fluorescence assay for self-mediated Aβ1–42 aggregation; assay type: biochemical; conditions: for inhibition of amyloid beta fibrils: after a 24-hour equimolar administration, ThT fluorescence (Fig. 4)
Chain of Aβ1–42 peptide (P05067 672-713): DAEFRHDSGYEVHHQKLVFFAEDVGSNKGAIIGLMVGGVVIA

[7] = target: T2, human MAO-B (Homo sapiens, UniProt P27338); assay: MAO-B inhibition assay; assay type: biochemical; conditions: for SI = IC50 of MAO-A/IC50 of MAO-B: selectivity index
T2 sequence (P27338 1-520): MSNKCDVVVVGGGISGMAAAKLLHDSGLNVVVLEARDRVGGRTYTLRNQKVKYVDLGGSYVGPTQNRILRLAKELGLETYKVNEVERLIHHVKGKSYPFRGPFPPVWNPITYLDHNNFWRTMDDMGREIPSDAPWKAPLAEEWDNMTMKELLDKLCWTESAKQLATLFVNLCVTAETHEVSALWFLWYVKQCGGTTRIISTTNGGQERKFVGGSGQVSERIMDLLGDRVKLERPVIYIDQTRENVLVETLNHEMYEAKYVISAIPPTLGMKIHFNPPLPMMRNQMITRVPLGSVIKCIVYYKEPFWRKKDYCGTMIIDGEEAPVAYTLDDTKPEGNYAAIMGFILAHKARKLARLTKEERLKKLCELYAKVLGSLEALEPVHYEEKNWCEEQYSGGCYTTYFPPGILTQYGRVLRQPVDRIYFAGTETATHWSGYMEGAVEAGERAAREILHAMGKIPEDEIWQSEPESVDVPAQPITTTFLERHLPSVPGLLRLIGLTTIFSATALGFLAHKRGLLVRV

[8] = target: T3, COX-2 (Homo sapiens, UniProt P35354); assay: biochemical
T3 sequence (P35354 18-604): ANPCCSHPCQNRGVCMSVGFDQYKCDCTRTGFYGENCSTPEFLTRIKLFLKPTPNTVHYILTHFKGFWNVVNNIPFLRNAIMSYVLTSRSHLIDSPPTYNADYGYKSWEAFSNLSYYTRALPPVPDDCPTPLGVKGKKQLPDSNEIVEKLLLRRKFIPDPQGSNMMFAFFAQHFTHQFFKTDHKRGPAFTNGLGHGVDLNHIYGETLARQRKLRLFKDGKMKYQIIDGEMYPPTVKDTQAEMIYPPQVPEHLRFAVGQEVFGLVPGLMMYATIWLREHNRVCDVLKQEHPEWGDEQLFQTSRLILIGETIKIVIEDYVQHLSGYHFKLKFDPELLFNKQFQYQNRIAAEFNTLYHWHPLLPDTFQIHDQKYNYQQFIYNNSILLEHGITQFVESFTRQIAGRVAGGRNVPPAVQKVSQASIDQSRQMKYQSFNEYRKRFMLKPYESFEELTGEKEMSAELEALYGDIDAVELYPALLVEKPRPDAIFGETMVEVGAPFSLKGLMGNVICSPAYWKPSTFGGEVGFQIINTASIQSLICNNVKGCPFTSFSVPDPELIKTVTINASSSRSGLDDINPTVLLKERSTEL

[9] = system: SH-SY5Y cells; assay: SH-SY5Y neuroblastoma cell toxicity; assay type: cell-based, human; conditions: 10–100 μM, 48 h incubation, MTT
[10] = target: T4, eqBChE (Equus caballus, UniProt P81908); assay: biochemical
T4 sequence (P81908 whole entry): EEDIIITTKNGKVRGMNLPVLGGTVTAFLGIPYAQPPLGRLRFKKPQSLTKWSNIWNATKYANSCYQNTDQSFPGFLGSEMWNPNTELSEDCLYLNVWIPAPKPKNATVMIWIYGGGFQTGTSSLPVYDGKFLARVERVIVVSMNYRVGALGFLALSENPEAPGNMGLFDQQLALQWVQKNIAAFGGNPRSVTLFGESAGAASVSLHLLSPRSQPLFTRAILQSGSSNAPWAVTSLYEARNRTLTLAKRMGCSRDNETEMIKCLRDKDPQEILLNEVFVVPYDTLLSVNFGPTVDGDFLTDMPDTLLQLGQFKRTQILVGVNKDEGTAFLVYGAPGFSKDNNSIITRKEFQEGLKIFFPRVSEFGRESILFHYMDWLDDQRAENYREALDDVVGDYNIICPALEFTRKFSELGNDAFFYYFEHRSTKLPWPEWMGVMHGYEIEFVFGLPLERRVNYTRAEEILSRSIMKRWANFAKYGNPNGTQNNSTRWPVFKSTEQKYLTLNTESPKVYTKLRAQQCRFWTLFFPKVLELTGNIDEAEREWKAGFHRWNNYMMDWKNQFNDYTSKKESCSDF

[11] = ABTS radical cation scavenging assay; conditions: read-out: IC50 (μM) ± SEM ABTS
[12] = DPPH radical scavenging assay; conditions: read-out: IC50 (μM) ± SEM DPPH
[13] = system: MDA; assay: In vivo MDA level in brain of mice; conditions: 5 mg kg^−1
[14] = system: SOD; assay: In vivo SOD level in brain of mice; conditions: 5 mg kg^−1
[15] = system: CAT; assay: In vivo CAT activity in brain of mice; conditions: high-test dose
[16] = system: GSH-Px; assay: In vivo GSH-Px activity in brain of mice; conditions: 5 mg kg^−1
[17] = target: T4, eqBChE; assay: Cholinesterase inhibition, Ellman's assay; conditions: read-out: IC50 (μM) ± SEM eqBChE; mean ± SEM; n = 3

Chain of eeAChE (O42275 24-633): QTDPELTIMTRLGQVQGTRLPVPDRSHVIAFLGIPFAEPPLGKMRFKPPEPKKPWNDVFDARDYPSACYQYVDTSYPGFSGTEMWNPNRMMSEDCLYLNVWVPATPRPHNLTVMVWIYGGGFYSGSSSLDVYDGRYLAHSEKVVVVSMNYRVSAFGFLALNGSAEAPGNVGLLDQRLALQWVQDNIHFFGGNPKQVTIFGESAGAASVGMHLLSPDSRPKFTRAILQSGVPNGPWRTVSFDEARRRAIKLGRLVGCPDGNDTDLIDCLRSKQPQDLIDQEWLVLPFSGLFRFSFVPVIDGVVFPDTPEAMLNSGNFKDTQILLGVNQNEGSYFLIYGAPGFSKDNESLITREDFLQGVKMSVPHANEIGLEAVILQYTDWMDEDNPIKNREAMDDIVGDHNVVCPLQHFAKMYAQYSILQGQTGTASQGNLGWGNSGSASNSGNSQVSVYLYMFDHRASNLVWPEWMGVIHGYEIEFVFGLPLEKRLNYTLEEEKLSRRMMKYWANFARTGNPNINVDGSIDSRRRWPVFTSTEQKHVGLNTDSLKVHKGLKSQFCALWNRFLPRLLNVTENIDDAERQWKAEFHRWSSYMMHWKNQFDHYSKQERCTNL

SMILES: O=C(/C=C/c1ccc(-c2ccccc2)cc1)Nc1nc2ccc(O)cc2s1 [Compound 23, (E)-3-([1,1′-Biphenyl]-4-yl)-N-(6-hydroxybenzo[d]thiazol-2-yl)acryl-amide]
- in vivo antioxidant activity [1]: good to moderate in vivo antioxidant activity
- IC50 [2]: 0.071 ± 0.1 µM
- SI = IC50 of BChE/IC50 of AChE [2]: 220
- IC50 [3]: 10 ± 0.5 µM
- cytotoxic effect on viability of HEK-293 cells [4]: not showed in cytotoxic effect
- FRAP value [5]: 53.57 µM
- IC50 [6]: 23.1 ± 1.05 µM
- inhibition of amyloid beta fibrils [6]: approximately 30%
- SI = IC50 of MAO-A/IC50 of MAO-B [7]: 270
- IC50 [8]: 14.4 ± 0.28 µM
- neurotoxicity / cytotoxicity on SH-SY5Y cells [9]: did not show any apparent neurotoxicity
- IC50 [10]: 15.6 ± 0.901 µM
- IC50 [11]: 12.1 ± 0.14 µM
- IC50 [12]: 18.19 ± 0.11 µM

SMILES: O=C(Nc1nc2ccc(O)cc2s1)c1cc(O)c(O)c(O)c1 [Compound 28, 3,4,5-Trihydroxy-N-(6-hydroxybenzo[d]thiazol-2-yl)benzamide]
- in vivo antioxidant activity [1]: good to moderate in vivo antioxidant activity
- IC50 [2]: 1.48 ± 0.1 µM
- SI = IC50 of BChE/IC50 of AChE [2]: 6
- IC50 [3]: 10.1 ± 0.239 µM
- cytotoxic effect on viability of HEK-293 cells [4]: not showed in cytotoxic effect
- FRAP value [5]: 45.24 µM
- MDA concentration in animal brains [13]: 1.15 nmol/mL
- IC50 [6]: 11.29 ± 0.08 µM
- inhibition of amyloid beta fibrils [6]: around 60%
- brain's SOD level [14]: 94.20 U mL^−1
- IC50 [7]: 0.219 ± 0.34 µM
- SI = IC50 of MAO-A/IC50 of MAO-B [7]: 46
- IC50 [8]: 10.4 ± 0.13 µM
- neurotoxicity / cytotoxicity on SH-SY5Y cells [9]: did not show any apparent neurotoxicity
- IC50 [10]: 9.25 ± 0.506 µM
- IC50 [11]: 2.06 ± 0.11 µM
- IC50 [12]: 1.77 ± 0.04 µM
- CAT activity [15]: 97 U mL^−1
- brain GSH-Px activity [16]: increases the antioxidant enzymatic activity of GSH-Px

SMILES: COc1cc(/C=C/C(=O)Nc2ccc(S(N)(=O)=O)cc2)ccc1OCc1ccccc1 [Compound 25, (E)-3-(4-(Benzyloxy)-3-methoxyphenyl)-N-(4-sulfamoylphenyl)acrylamide]
- IC50 [2]: 0.835 ± 0.1 µM
- SI = IC50 of BChE/IC50 of AChE [2]: 17
- IC50 [3]: 28.2 ± 1.09 µM
- cytotoxic effect on viability of HEK-293 cells [4]: not showed in cytotoxic effect
- FRAP value [5]: 20.07 µM
- IC50 [6]: 14.1 ± 0.24 µM
- inhibition of amyloid beta fibrils [6]: ~50%
- IC50 [7]: 0.066 ± 0.004 µM
- SI = IC50 of MAO-A/IC50 of MAO-B [7]: 426
- IC50 [8]: 0.74 ± 0.13 µM
- neurotoxicity / cytotoxicity on SH-SY5Y cells [9]: did not show any apparent neurotoxicity
- IC50 [10]: 14.1 ± 0.639 µM
- IC50 [11]: 20.7 ± 1.11 µM
- IC50 [12]: 25 ± 1.16 µM

SMILES: NS(=O)(=O)c1ccc(NC(=O)/C=C/c2ccc(-c3ccccc3)cc2)cc1 [Compound 26, (E)-3-([1,1′-Biphenyl]-4-yl)-N-(4-sulfamoylphenyl)acrylamide]
- IC50 [2]: 0.89 ± 0.1 µM
- SI = IC50 of BChE/IC50 of AChE [2]: 1
- IC50 [3]: 19.9 ± 1.17 µM
- cytotoxic effect on viability of HEK-293 cells [4]: not showed in cytotoxic effect
- FRAP value [5]: 24.7 µM
- IC50 [6]: 19.52 ± 0.18 µM
- IC50 [7]: 0.327 ± 0.011 µM
- SI = IC50 of MAO-A/IC50 of MAO-B [7]: 60
- IC50 [8]: 2.19 ± 0.1 µM
- IC50 [10]: 1.03 ± 0.031 µM
- IC50 [11]: 40.6 ± 1.11 µM

SMILES: COc1cc(/C=C/C(=O)Nc2nc3ccc(O)cc3s2)ccc1OCc1ccccc1 [Compound 22, (E)-3-(4-(Benzyloxy)-3-methoxyphenyl)-N-(6-hydroxybenzo[d]thi-azol-2-yl)acrylamide]
- IC50 ([2]; read-out: IC50 (μM) ± SEM eeAChE, mean ± SEM, n = 3): 0.172 ± 0.1 µM
- SI = IC50 of BChE/IC50 of AChE [2]: 217
- IC50 ([3]; read-out: IC50 (μM) ± SEM MAO-A, mean ± SEM, n = 3): 19.4 ± 1.1 µM
- IC50 [17]: 37.4 ± 1.17 µM
- IC50 ([7]; read-out: IC50 (μM) ± SEM MAO-B, mean ± SEM, n = 3): 0.348 ± 0.041 µM
- SI = IC50 of MAO-A/IC50 of MAO-B [7]: 55
- IC50 [11]: 43.2 ± 1.34 µM
- IC50 [12]: 16.33 ± 0.1 µM
